Test results taken from BindingDB's records for doi:10.1021/jm00145a017 (1985).

Test: Intrinsic affinity towards serotonin receptor from rat frontal cortex by displacement of [3H]spiperone.

With `FC(F)(F)c1ccc2c(c1)N1CCNCC1CC2` (stereo not drawn) [9-Trifluoromethyl-2,3,4,4a,5,6-hexahydro-1H-pyrazino[1,2-a]quinoline] as the molecule, how does the Ki read?
Its Ki is 0.136 µM.

With `Clc1cncc(N2CCNCC2)n1` [L-630,571] as the molecule, how does the Ki read?
Its Ki is 6 µM.

Which Ki does the source give for `FC(F)(F)c1cccc(N2CCNCC2)c1` [TFMPP] here?
The Ki was 0.298 µM.
